# Where two headings read alike, the source gives them in different places.
# Columns and labels:
# Type in all cases: in vivo
# STEME [1] = test: Biological efficacy, pre-emergence glasshouse test (Table 2); conditions: 1000 g/ha, after 12 days
# Procedure: (§1) Seeds of a variety of test species were shown in unsterilised compost in small pots. After cultivation for one day (pre-emergence) or seven days (post-emergence) in controlled conditions in the glasshouse (at 24/16° C., day/night; 14 hours light; 65% humidity) the plants were sprayed with 1 mg of the active ingredient, formulated in 466 μl of a acetone/water/Tween 20 (49.75:49.75:0.5) solution, which is equivalent to 1000 g/ha. Once the foliage was dry, the pots were kept in the glasshouse (at 24/16° C., day/night; 14 hours light; 65% humidity), and were watered twice daily. After 12 days the test was evaluated and scored (100=total damage to plant, 0=no damage to plant).
# AMARE [2] = test: as above; conditions: 1000 g/ha, after 12 days
# Procedure: as §1
# DIGSA [3] = test: as above; conditions: 1000 g/ha, after 12 days
# Procedure: as §1
# LOLPE [4] = test: as above; conditions: 1000 g/ha, after 12 days
# Procedure: as §1
# STEME [5] = test: Biological efficacy, post-emergence glasshouse test (Table 2); conditions: 1000 g/ha, after 12 days
# Procedure: as §1
# AMARE [6] = test: as above; conditions: 1000 g/ha, after 12 days
# Procedure: as §1
# DIGSA [7] = test: as above; conditions: 1000 g/ha, after 12 days
# Procedure: as §1
# LOLPE [8] = test: as above; conditions: 1000 g/ha, after 12 days
# Procedure: as §1
# STEME [9] = test: Pre-emergence biological efficacy (Table 3); conditions: after 13 days
# Method in brief: (§2)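 Seeds sown in standard soil and sprayed one day later with compound formulated in acetone/AMA solvent-emulsifier, diluted in 0.2% Genapol X080 to the final dose. Plants grown in glasshouse at 24/18° C, 15 h light, 50% humidity. Damage scored after 13 days (0=none, 100=total).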
# AMARE [10] = test: Pre-emergence biological efficacy (Table 3); conditions: 1000 g/ha, after 13 days
# Method in brief: as §2
# ABUTH = test: Pre-emergence biological efficacy (Table 3); conditions: after 13 days
# Method in brief: as §2
# ECHCG = test: Pre-emergence biological efficacy (Table 3); conditions: Echinochloa crus-galli, 312 h, 1000 g/ha, after 13 days, read-out: evaluation (100=total damage to plant; 0=no damage to plant)
# Method in brief: as §2
# IPOHE = test: Pre-emergence biological efficacy (Table 3); conditions: 1000 g/ha, after 13 days
# Method in brief: as §2
# ZEAMX = test: Pre-emergence biological efficacy (Table 3); conditions: 1000 g/ha, after 13 days
# Method in brief: as §2
# weeds and/or crops = test: Post-emergence biological efficacy (Table 4); conditions: 1000 g/ha, evaluated after 13 days; for pest or weed control at 1000 g/ha: 312 h
# Method in brief: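 Weeds and crops were grown 14 days in a glasshouse, then sprayed post-emergence with compound formulated in acetone/F50 and diluted in 0.2% Genapol X080 to the final dose. Damage was scored after 13 days on a 0–100 scale, where 100 is total damage.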
# [11] = 312 h, read-out: evaluation (100=total damage to plant; 0=no damage to plant)
structure (smiles),measurement,setting,value
"CCc1c(Cl)cccc1C(F)(F)C(=O)O [Compound 1-275, 2-(3-Chloro-2-ethyl-phenyl)-2,2-difluoro-acetic acid]","score (100=total damage to plant, 0=no damage to plant)",STEME [1],100
same,"score (100=total damage to plant, 0=no damage to plant)",AMARE [2],100
same,"score (100=total damage to plant, 0=no damage to plant)",DIGSA [3],80
same,"score (100=total damage to plant, 0=no damage to plant)",LOLPE [4],60
same,"score (100=total damage to plant, 0=no damage to plant)",STEME [5],80
same,"score (100=total damage to plant, 0=no damage to plant)",AMARE [6],90
same,"score (100=total damage to plant, 0=no damage to plant)",DIGSA [7],30
same,"score (100=total damage to plant, 0=no damage to plant)",LOLPE [8],0
"C#Cc1c(Cl)cccc1C(F)(F)C(=O)O [Compound 1-291, 2-(3-Chloro-2-ethynyl-phenyl)-2,2-difluoro-acetic acid]","score (100=total damage to plant, 0=no damage to plant)",STEME [1],100
same,"score (100=total damage to plant, 0=no damage to plant)",AMARE [2],90
same,"score (100=total damage to plant, 0=no damage to plant)",DIGSA [3],90
same,"score (100=total damage to plant, 0=no damage to plant)",LOLPE [4],80
same,"score (100=total damage to plant, 0=no damage to plant)",STEME [5],80
same,"score (100=total damage to plant, 0=no damage to plant)",AMARE [6],100
same,"score (100=total damage to plant, 0=no damage to plant)",DIGSA [7],70
same,"score (100=total damage to plant, 0=no damage to plant)",LOLPE [8],0
COc1ccc(F)cc1C(F)(F)C(=O)O [Compound 1-304],"score (100=total damage to plant, 0=no damage to plant)",STEME [1],0
same,"score (100=total damage to plant, 0=no damage to plant)",AMARE [2],0
same,"score (100=total damage to plant, 0=no damage to plant)",DIGSA [3],0
same,"score (100=total damage to plant, 0=no damage to plant)",LOLPE [4],0
same,"score (100=total damage to plant, 0=no damage to plant)",STEME [5],20
same,"score (100=total damage to plant, 0=no damage to plant)",AMARE [6],70
same,"score (100=total damage to plant, 0=no damage to plant)",DIGSA [7],20
same,"score (100=total damage to plant, 0=no damage to plant)",LOLPE [8],20
COc1ccc(Cl)cc1C(F)(F)C(=O)O [Compound 1-305],"score (100=total damage to plant, 0=no damage to plant)",STEME [1],0
same,"score (100=total damage to plant, 0=no damage to plant)",AMARE [2],0
same,"score (100=total damage to plant, 0=no damage to plant)",DIGSA [3],0
same,"score (100=total damage to plant, 0=no damage to plant)",LOLPE [4],0
same,"score (100=total damage to plant, 0=no damage to plant)",STEME [5],0
same,"score (100=total damage to plant, 0=no damage to plant)",AMARE [6],50
same,"score (100=total damage to plant, 0=no damage to plant)",DIGSA [7],0
same,"score (100=total damage to plant, 0=no damage to plant)",LOLPE [8],0
CCOc1ccccc1C(F)(F)C(=O)O [Compound 1-328],"score (100=total damage to plant, 0=no damage to plant)",STEME [1],40
same,"score (100=total damage to plant, 0=no damage to plant)",AMARE [2],50
same,"score (100=total damage to plant, 0=no damage to plant)",DIGSA [3],0
same,"score (100=total damage to plant, 0=no damage to plant)",LOLPE [4],0
same,"score (100=total damage to plant, 0=no damage to plant)",STEME [5],60
same,"score (100=total damage to plant, 0=no damage to plant)",AMARE [6],80
same,"score (100=total damage to plant, 0=no damage to plant)",DIGSA [7],0
same,"score (100=total damage to plant, 0=no damage to plant)",LOLPE [8],0
CC(C)Oc1ccccc1C(F)(F)C(=O)O [Compound 1-341],"score (100=total damage to plant, 0=no damage to plant)",STEME [1],30
same,"score (100=total damage to plant, 0=no damage to plant)",AMARE [2],30
same,"score (100=total damage to plant, 0=no damage to plant)",DIGSA [3],0
same,"score (100=total damage to plant, 0=no damage to plant)",LOLPE [4],10
same,"score (100=total damage to plant, 0=no damage to plant)",STEME [5],60
same,"score (100=total damage to plant, 0=no damage to plant)",AMARE [6],80
same,"score (100=total damage to plant, 0=no damage to plant)",DIGSA [7],20
same,"score (100=total damage to plant, 0=no damage to plant)",LOLPE [8],10
"CCOC(=O)C(F)(F)c1cccc2cccc(C(F)(F)C(=O)OCC)c12 [Compound 3-419, Ethyl 2-[8-(2-ethoxy-1,1-difluoro-2-oxo-ethyl)-1-naphthyl]-2,2-difluoro-acetate]",pest or weed control at 1000 g/ha,STEME [9]; [11],40%
same,pest or weed control at 1000 g/ha,"AMARE [10]; Amaranthus retroflexus, 312 h, read-out: evaluation (100=total damage to plant; 0=no damage to plant)",20%
same,pest or weed control at 1000 g/ha,"ABUTH; Abutilon theophrasti, 312 h, read-out: evaluation (100=total damage to plant; 0=no damage to plant)",30%
same,pest or weed control at 1000 g/ha,ECHCG,0%
same,pest or weed control at 1000 g/ha,"IPOHE; Ipomoea hederacea, 312 h, read-out: evaluation (100=total damage to plant; 0=no damage to plant)",10%
same,plant injury at 1000 g/ha,ZEAMX; [11],0%
same,pest or weed control at 1000 g/ha,"weeds and/or crops; STEME, read-out: damage to plant STEME (100=total damage; 0=no damage)",100%
same,pest or weed control at 1000 g/ha,"weeds and/or crops; ZEAMX, read-out: damage to plant ZEAMX (100=total damage; 0=no damage)",0%
same,pest or weed control at 1000 g/ha,"weeds and/or crops; Abutilon theophrasti, ABUTH, read-out: damage to plant ABUTH (100=total damage; 0=no damage)",80%
same,pest or weed control at 1000 g/ha,"weeds and/or crops; Amaranthus retroflexus, AMARE, read-out: damage to plant AMARE (100=total damage; 0=no damage)",20%
same,pest or weed control at 1000 g/ha,"weeds and/or crops; Echinochloa crus-galli, ECHCG, read-out: damage to plant ECHCG (100=total damage; 0=no damage)",0%
same,pest or weed control at 1000 g/ha,"weeds and/or crops; Ipomoea hederacea, IPOHE, read-out: damage to plant IPOHE (100=total damage; 0=no damage)",70%
same,"score (100=total damage to plant, 0=no damage to plant)",STEME [1],60
same,"score (100=total damage to plant, 0=no damage to plant)",AMARE [2],80
same,"score (100=total damage to plant, 0=no damage to plant)",DIGSA [3],0
same,"score (100=total damage to plant, 0=no damage to plant)",LOLPE [4],0
same,"score (100=total damage to plant, 0=no damage to plant)",STEME [5],70
same,"score (100=total damage to plant, 0=no damage to plant)",AMARE [6],80
same,"score (100=total damage to plant, 0=no damage to plant)",DIGSA [7],40
same,"score (100=total damage to plant, 0=no damage to plant)",LOLPE [8],0
"COc1cc(F)c(C(F)(F)C(=O)O)cc1Cl.N [Compound 7-31, Ammonium;2-(5-chloro-2-fluoro-4-methoxy-phenyl)-2,2-difluoro-acetate]",evaluation (100=total damage to plant; 0=no damage to plant),STEME [9]; 1000 g/ha,0
same,evaluation (100=total damage to plant; 0=no damage to plant),AMARE [10],0
same,evaluation (100=total damage to plant; 0=no damage to plant),ABUTH; 1000 g/ha,0
same,evaluation (100=total damage to plant; 0=no damage to plant),IPOHE,0
same,evaluation (100=total damage to plant; 0=no damage to plant),ZEAMX,0
same,damage to plant ABUTH (100=total damage; 0=no damage),weeds and/or crops; ABUTH,0
same,damage to plant AMARE (100=total damage; 0=no damage),weeds and/or crops; AMARE,0
same,damage to plant IPOHE (100=total damage; 0=no damage),weeds and/or crops; IPOHE,0
same,damage to plant STEME (100=total damage; 0=no damage),weeds and/or crops; STEME,0
same,damage to plant ZEAMX (100=total damage; 0=no damage),weeds and/or crops; ZEAMX,20
same,"score (100=total damage to plant, 0=no damage to plant)",STEME [1],0
same,"score (100=total damage to plant, 0=no damage to plant)",AMARE [2],0
same,"score (100=total damage to plant, 0=no damage to plant)",DIGSA [3],0
same,"score (100=total damage to plant, 0=no damage to plant)",LOLPE [4],0
same,"score (100=total damage to plant, 0=no damage to plant)",STEME [5],0
same,"score (100=total damage to plant, 0=no damage to plant)",AMARE [6],100
same,"score (100=total damage to plant, 0=no damage to plant)",DIGSA [7],0
same,"score (100=total damage to plant, 0=no damage to plant)",LOLPE [8],0

# Reference: patent US20240251792A1, “WEED CONTROL METHOD” (SYNGENTA CROP PROTECTION AG, priority 2021, published 2024)
